According to patent US6348456B1, “Method of treating chemical dependency in mammals and a composition therefor” (priority 1994, dated 2002):

Test: plasma concentration of ibogaine and its metabolite 12-hydroxy ibogamine over time after ibogaine administration to a human patient
Format: in vivo
Method: An amount of ibogaine was administered to a human patient, and the plasma concentration of both ibogaine and a metabolite thereof, 12-hydroxy ibogamine, were observed as a function of time.
FIG. 1 illustrates the result of administering a certain dosage of ibogaine to a human patient, where the plasma concentration of ibogaine is measured over time. In essence, a peak plasma concentration of about 1,100 ng/ml is observed at administration. It is also notable that at about 11 hours after ibogaine administration, plasma concentration of ibogaine diminished to less than 400 ng/ml. After about 24 hours, plasma concentration diminished to less than 200 ng/ml. Thus, ibogaine is rather quickly eliminated by the patient.
By contrast, FIG. 2 illustrates the variation of noribogaine plasma concentration with time as a metabolite from the same ibogaine administration described above. In essence, a peak plasma concentration of noribogaine of about 590 ng/ml was reached only after about 11 hours from administration. Thereafter, even at 24 hours, a plasma concentration of greater than 500 ng/ml was observed.

| Compound | plasma concentration of ibogaine (after about 24 hours) | plasma concentration of ibogaine (at about 11 hours after ibogaine administration) | peak plasma concentration of ibogaine (ibogaine administered, (FIG. 1)) | plasma half-life compared with ibogaine (after ibogaine administration) | plasma concentration of noribogaine (at 24 hours, metabolite after ibogaine administration) | time from administration to peak plasma concentration of noribogaine (noribogaine as metabolite after ibogaine administration) | peak plasma concentration of noribogaine (noribogaine as metabolite from the same ibogaine administration (FIG. 2)) |
| --- | --- | --- | --- | --- | --- | --- | --- |
| CC[C@H]1CC2C[C@H]3c4[nH]c5ccc(OC)cc5c4CCN(C2)C13 [ibogaine, reference compound] | less than 200 ng/ml | less than 400 ng/ml | about 1,100 ng/ml |  |  |  |  |
| CC[C@H]1C[C@H]2C[C@H]3c4[nH]c5ccc(O)cc5c4CCN(C2)[C@@H]13 [noribogaine, 12-hydroxy ibogamine] |  |  |  | much longer plasma half-life than ibogaine | greater than 500 ng/ml | about 11 hours | about 590 ng/ml |
